Assay results published in PMC3176174 (OncoTargets and therapy, 2011).

Columns and labels:
Experiment in all cases: cells
Assay type in all cases: cell-based, human
SEM cell line = tested on: SEM cell line
B1 cell line = tested on: B1 cell line
KOPN8 cell line = tested on: KOPN8 cell line
MOLT-3 cell line = tested on: MOLT-3 cell line
TIB-202 cell line = tested on: TIB-202 cell line

| SMILES | IC50 (SEM cell line; Homo sapiens, 96 h) | IC50 (B1 cell line; Homo sapiens, 96 h) | IC50 (KOPN8 cell line; Homo sapiens, KOPN-8, 96 h) | IC50 (MOLT-3 cell line; Homo sapiens, MOLT-3, 96 h) | IC50 (TIB-202 cell line; Homo sapiens, 96 h) | IC50 (SEM cell line; Table S1, SEM, 96 hours) | IC50 (B1 cell line; Table S1, B1, 96 hours) | IC50 (KOPN8 cell line; Table S1, KOPN8, 96 hours) | IC50 (MOLT-3 cell line; Table S1, MOLT-3, 96 hours) | IC50 (TIB-202 cell line; Table S1, TIB-202, 96 hours) |
| --- | --- | --- | --- | --- | --- | --- | --- | --- | --- | --- |
| O=c1[nH]cc(F)c(=O)[nH]1 [Fluorouracil] | > 10 µM | > 10 µM | > 5 µM | 7.11 µM | > 5 µM | – | – | – | – | – |
| C[C@]12CC[C@@H]3c4ccc(O)cc4C[C@@H](CCCCCCCCC[S+]([O-])CCCC(F)(F)C(F)(F)F)[C@H]3[C@@H]1CC[C@@H]2O (stereo partly shown) [Fulvestrant] | > 10 µM | > 10 µM | 7.64 µM | > 10 µM | > 10 µM | – | – | – | – | – |
| NC(=O)NO [Hydroxyurea] | – | – | – | – | – | > 10 µM | > 10 µM | > 5 µM | > 10 µM | > 5 µM |
| O=P1(NCCCl)OCCCN1CCCl (stereo not shown) [Ifosfamide] | > 10 µM | > 10 µM | > 5 µM | > 10 µM | > 5 µM | – | – | – | – | – |
| CC(C)Cn1cnc2c(N)nc3ccccc3c21 [Imiquimod] | > 10 µM | > 10 µM | 2.9 µM | > 10 µM | > 10 µM | – | – | – | – | – |
| CS(=O)(=O)CCNCc1ccc(-c2ccc3ncnc(Nc4ccc(OCc5cccc(F)c5)c(Cl)c4)c3c2)o1 [Lapatinib] | 4.73 µM | 5.7 µM | 5.2 µM | > 10 µM | 7.42 µM | – | – | – | – | – |
| N#Cc1ccc(C(c2ccc(C#N)cc2)n2cncn2)cc1 [Letrozole] | > 10 µM | > 10 µM | > 10 µM | > 10 µM | > 10 µM | – | – | – | – | – |
| N[C@@H](Cc1ccc(N(CCCl)CCCl)cc1)C(=O)O [Melphalan] | 5.8 µM | 4.08 µM | 0.425 µM | 1.03 µM | 2.2 µM | – | – | – | – | – |
| S=c1[nH]cnc2nc[nH]c12 [Mercaptopurine] | > 10 µM | > 10 µM | > 5 µM | > 10 µM | > 5 µM | – | – | – | – | – |
| COc1c2occc2cc2ccc(=O)oc12 [Methoxsalen] | > 10 µM | > 10 µM | > 5 µM | > 10 µM | > 5 µM | – | – | – | – | – |
| Clc1ccc(C(c2ccccc2Cl)C(Cl)Cl)cc1 (stereo not shown) [Mitotane] | > 10 µM | > 10 µM | > 5 µM | > 10 µM | > 5 µM | – | – | – | – | – |
| O=C1[O][Pt]2([NH][C@@H]3CCCC[C@H]3[NH]2)[O]C1=O [Oxaliplatin] | – | – | – | – | – | 5.67 µM | 3.68 µM | 0.309 µM | 0.969 µM | 6.2 µM |

Now from value to compound, other results behind:

| IC50 (SEM cell line; Homo sapiens, 96 h) | IC50 (B1 cell line; Homo sapiens, 96 h) | IC50 (KOPN8 cell line; Homo sapiens, KOPN-8, 96 h) | IC50 (MOLT-3 cell line; Homo sapiens, MOLT-3, 96 h) | IC50 (TIB-202 cell line; Homo sapiens, 96 h) | SMILES | IC50 (SEM cell line; Table S1, SEM, 96 hours) | IC50 (B1 cell line; Table S1, B1, 96 hours) | IC50 (KOPN8 cell line; Table S1, KOPN8, 96 hours) | IC50 (MOLT-3 cell line; Table S1, MOLT-3, 96 hours) | IC50 (TIB-202 cell line; Table S1, TIB-202, 96 hours) |
| --- | --- | --- | --- | --- | --- | --- | --- | --- | --- | --- |
| > 10 µM | 8.48 µM | > 5 µM | > 10 µM | > 5 µM | O=c1[nH]c(=O)n([C@H]2C[C@H](O)[C@@H](CO)O2)cc1F [Floxuridine] | – | – | – | – | – |
| 3.4 µM | 2.29 µM | 1.69 µM | 3.92 µM | 2.53 µM | CCc1c2c(nc3ccc(OC(=O)N4CCC(N5CCCCC5)CC4)cc13)-c1cc3c(c(=O)n1C2)COC(=O)[C@]3(O)CC [Irinotecan] | – | – | – | – | – |
| > 10 µM | > 10 µM | > 10 µM | 10 µM | > 10 µM | Nc1cccc2c1CN(C1CCC(=O)NC1=O)C2=O (stereo not shown) [Lenalidomide] | – | – | – | – | – |
| 9.35 µM | 8.32 µM | > 5 µM | > 10 µM | > 5 µM | O=NN(CCCl)C(=O)NC1CCCCC1 [Lomustine] | – | – | – | – | – |
| > 10 µM | > 10 µM | > 5 µM | > 10 µM | > 5 µM | CC(=O)O[C@]1(C(C)=O)CC[C@H]2[C@@H]3C=C(C)C4=CC(=O)CC[C@]4(C)[C@H]3CC[C@@]21C [Megestrol acetate] | – | – | – | – | – |
| > 10 µM | > 10 µM | > 10 µM | 1.23 µM | > 10 µM | COc1nc(N)nc2c1ncn2[C@@H]1O[C@H](CO)[C@@H](O)[C@@H]1O [Nelarabine] | – | – | – | – | – |
| > 10 µM | < 0.01 µM | > 10 µM | > 10 µM | < 0.01 µM | Cc1cn(-c2cc(NC(=O)c3ccc(C)c(Nc4nccc(-c5cccnc5)n4)c3)cc(C(F)(F)F)c2)cn1 [Nilotinib] | – | – | – | – | – |
| > 10 µM | > 10 µM | > 5 µM | > 10 µM | > 5 µM | OC[C@H]1O[C@@H](n2cnc3c2NC=NC[C@H]3O)C[C@@H]1O [Pentostatin] | – | – | – | – | – |
| 4.32 µM | 2.63 µM | 0.389 µM | 6.35 µM | 4.34 µM | O=C(CCBr)N1CCN(C(=O)CCBr)CC1 [Pipobroman] | – | – | – | – | – |
| > 10 µM | > 10 µM | > 5 µM | > 10 µM | > 5 µM | CNNCc1ccc(C(=O)NC(C)C)cc1 [Procarbazine] | – | – | – | – | – |
| 4.44 µM | > 10 µM | 8.3 µM | > 10 µM | > 10 µM | O=C(c1ccc(OCCN2CCCCC2)cc1)c1c(-c2ccc(O)cc2)sc2cc(O)ccc12 [Raloxifene] | – | – | – | – | – |
